Data reported in PubChem BioAssay (NCI).
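A five-concentration, 48-hour dose response in 96-well plates underlies each endpoint, interpolated linearly between surrounding concentrations. GI50: concentration for 50% inhibition of growth. Definition used: TGI = concentration required for complete inhibition of growth.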

How the values were obtained:
Assay in all cases: NCI tumour cell line growth inhibition, 48 h
[1] = tested on: 786-0 renal
[2] = tested on: A498 renal
[3] = tested on: A549 NSCLC
[4] = tested on: ACHN renal
[5] = tested on: BT-549 breast
[6] = tested on: CAKI-1 renal
[7] = tested on: COLO 205 colon
[8] = tested on: DU-145 prostate
[9] = tested on: EKVX NSCLC
[10] = tested on: HCC-2998 colon
[11] = tested on: HCT-116 colon
[12] = tested on: HCT-15 colon
[13] = tested on: HL-60(TB) leukemia
[14] = tested on: HOP-62 NSCLC
[15] = tested on: HOP-92 NSCLC
[16] = tested on: HS 578T breast
[17] = tested on: HT29 colon
[18] = tested on: IGROV1 ovarian
[19] = tested on: K-562 leukemia
[20] = tested on: KM12 colon
[21] = tested on: LOX IMVI melanoma
[22] = tested on: M14 melanoma
[23] = tested on: MALME-3M melanoma
[24] = tested on: MCF7 breast
[25] = tested on: MDA-MB-231 breast
[26] = tested on: MDA-MB-435
[27] = tested on: MOLT-4 leukemia
[28] = tested on: NCI-H226 lung
[29] = tested on: NCI-H23 lung
[30] = tested on: NCI-H460 lung
[31] = tested on: NCI-H522 lung
[32] = tested on: OVCAR-3 ovarian
[33] = tested on: OVCAR-4 ovarian
[34] = tested on: OVCAR-5 ovarian
[35] = tested on: OVCAR-8 ovarian
[36] = tested on: PC-3 prostate
[37] = tested on: RPMI-8226 leukemia
[38] = tested on: RXF 393 renal
[39] = tested on: SF-268 CNS
[40] = tested on: SF-295 CNS
[41] = tested on: SF-539 CNS
[42] = tested on: SK-MEL-2 melanoma
[43] = tested on: SK-MEL-28 melanoma
[44] = tested on: SK-MEL-5 melanoma
[45] = tested on: SK-OV-3 ovarian
[46] = tested on: SN12C renal
[47] = tested on: SNB-19 CNS
[48] = tested on: SNB-75 CNS
[49] = tested on: SR leukemia
[50] = tested on: SW-620 colon
[51] = tested on: T-47D breast
[52] = tested on: TK-10 renal
[53] = tested on: U251 CNS
[54] = tested on: UACC-257 melanoma
[55] = tested on: UACC-62 melanoma
[56] = tested on: UO-31 renal

In the case of CC(C)(O)c1coc(S(=O)(=O)/N=C(\O)Nc2c3c(cc4c2CCC4)CCC3)c1, the GI50 [1] is reported as over 100 µM, the TGI [1] is reported as over 100 µM and the GI50 [2] is reported as over 100 µM. For the same molecule, the TGI [2] was over 100 µM, the GI50 [3] was over 100 µM and the TGI [3] was over 100 µM. It also gave a GI50 [4] of over 100 µM, a TGI [4] of over 100 µM and a GI50 [5] of over 100 µM. The TGI [5] was over 100 µM, the GI50 [6] was over 100 µM and the TGI [6] was over 100 µM. The GI50 [7] was over 100 µM, the TGI [7] was over 100 µM and the GI50 [8] was over 100 µM. The TGI [8] was over 100 µM, the GI50 [9] was over 100 µM and the TGI [9] was over 100 µM. The GI50 [10] was over 100 µM, the TGI [10] was over 100 µM and the GI50 [11] was over 100 µM. For the same molecule, the TGI [11] was over 100 µM, the GI50 [12] was over 100 µM and the TGI [12] was over 100 µM. It also gave a GI50 [13] of over 100 µM, a TGI [13] of over 100 µM and a GI50 [14] of over 100 µM. It also gave a TGI [14] of over 100 µM, a GI50 [15] of 91.9 µM and a TGI [15] of over 100 µM. The GI50 [16] was over 100 µM, the TGI [16] was over 100 µM and the GI50 [17] was over 100 µM. It also gave a TGI [17] of over 100 µM, a GI50 [18] of over 100 µM and a TGI [18] of over 100 µM. The GI50 [19] was over 100 µM, the TGI [19] was over 100 µM and the GI50 [20] was over 100 µM. For the same molecule, the TGI [20] was over 100 µM, the GI50 [21] was over 100 µM and the TGI [21] was over 100 µM. The GI50 [22] was over 100 µM, the TGI [22] was over 100 µM and the GI50 [23] was over 100 µM. It also gave a TGI [23] of over 100 µM, a GI50 [24] of over 100 µM and a TGI [24] of over 100 µM. The GI50 [25] was over 100 µM, the TGI [25] was over 100 µM and the GI50 [26] was over 100 µM. The TGI [26] was over 100 µM, the GI50 [27] was over 100 µM and the TGI [27] was over 100 µM. It also gave a GI50 [28] of over 100 µM, a TGI [28] of over 100 µM and a GI50 [29] of over 100 µM. It also gave a TGI [29] of over 100 µM, a GI50 [30] of over 100 µM and a TGI [30] of over 100 µM. It also gave a GI50 [31] of over 100 µM, a TGI [31] of over 100 µM and a GI50 [32] of over 100 µM. For the same molecule, the TGI [32] was over 100 µM, the GI50 [33] was over 100 µM and the TGI [33] was over 100 µM. It also gave a GI50 [34] of over 100 µM, a TGI [34] of over 100 µM and a GI50 [35] of over 100 µM. For the same molecule, the TGI [35] was over 100 µM, the GI50 [36] was over 100 µM and the TGI [36] was over 100 µM. For the same molecule, the GI50 [37] was over 100 µM, the TGI [37] was over 100 µM and the GI50 [38] was over 100 µM. For the same molecule, the TGI [38] was over 100 µM, the GI50 [39] was over 100 µM and the TGI [39] was over 100 µM. For the same molecule, the GI50 [40] was over 100 µM, the TGI [40] was over 100 µM and the GI50 [41] was over 100 µM. For the same molecule, the TGI [41] was over 100 µM, the GI50 [42] was over 100 µM and the TGI [42] was over 100 µM. For the same molecule, the GI50 [43] was over 100 µM, the TGI [43] was over 100 µM and the GI50 [44] was over 100 µM. It also gave a TGI [44] of over 100 µM, a GI50 [45] of over 100 µM and a TGI [45] of over 100 µM. The GI50 [46] was over 100 µM, the TGI [46] was over 100 µM and the GI50 [47] was over 100 µM. It also gave a TGI [47] of over 100 µM, a GI50 [48] of over 100 µM and a TGI [48] of over 100 µM. The GI50 [49] was over 100 µM, the TGI [49] was over 100 µM and the GI50 [50] was over 100 µM. The TGI [50] was over 100 µM, the GI50 [51] was over 100 µM and the TGI [51] was over 100 µM. For the same molecule, the GI50 [52] was over 100 µM, the TGI [52] was over 100 µM and the GI50 [53] was over 100 µM. It also gave a TGI [53] of over 100 µM, a GI50 [54] of over 100 µM and a TGI [54] of over 100 µM. For the same molecule, the GI50 [55] was over 100 µM, the TGI [55] was over 100 µM and the GI50 [56] was over 100 µM. The TGI [56] was over 100 µM.
